Assay results: US10183941B2, “Pyrimidine or pyridopyridone compound and application thereof” (GUANGZHOU BEBETTER MEDICINE TECHNOLOGY CO., LTD., priority 2015, dated 2019)
Read-outs that look alike come from different tables or passages of the source.

Legend:
[1] = tested on: MDA-MB-231 breast cancer cells; experiment: Cell cycle inhibition experiment (PI staining, flow cytometry); assay type: cell-based; details: Homo sapiens, MDA-MB-231 cells, 24 h
Description: The cell cycle and apoptosis assay kit (Beyotime, C1052) used in this experiment is an assay kit for analyzing the cell cycle and apoptosis using the classic method of Propidium staining (PI staining). Propidium (PI) is a double-stranded DNA fluorescent dye. The combination of propidium and double-stranded DNA can produce fluorescence, and fluorescence intensity is proportional to the amount of double-stranded DNA. After DNA in cells is stained with propidium, the DNA content of the cells can be measured by flow cytometry, and then the cell cycle and apoptosis can be analyzed according to the distribution of DNA content.
MDA-MB-231 cells were seeded into a 6-well plate at 3×10^5 per well and cultured for 24 hours.
In tumor cell cycle, the binding of CDK4 and CDK6 to cyclin D promotes G1 phase into S phase. CDK4/6 inhibitor selectively arrests the G1 phase of tumor cells into S phase. The detection results of the cell cycle of MDA-MB-231 breast cancer cells by flow cytometry indicate that the CDK4/6 inhibitor compounds provided by the present disclosure stop the growth of G1 phase cells and reduce S phase cells in a concentration-dependent manner, as shown in the following table.

[2] = target: T1, CDK4 (GST-CDK4(1-303end)/GST-CycD3(1-292end)) (Homo sapiens, UniProt P11802); experiment: CDK4 activity inhibition experiment (Caliper mobility shift assay); assay type: biochemical; details: enzyme activity inhibition; read-out: CDK4 IC50 class
T1 construct: GST-CDK4(1-303end); purchased Carna 04-105

MDA-MB-231 = experiment: Tumor cell proliferation inhibition (CellTiter-Glo), MDA-MB-231; assay type: cell-based; details: Homo sapiens, 72 hours, 10% fetal bovine serum, read-out: MDA-MB-231 IC50 class
Protocol: (§1) The content of adenosine triphosphate (ATP) was determined using the CellTiter-Glo Luminescent Cell Viability Assay Kit (Promega, Madison, Wis.) to evaluate cell viability. Tumor cell lines (SW620, ZR-75-1, MDA-MB-231) were purchased from the Cell Resource Center of IBS, Fudan University, Shanghai and the American Type Culture Collection (ATCC). The cell density was determined using Scepter automated cell counter (Millipore # PHCC00000) after the cells were digested with pancreatin in cell culture dishes and resuspended in DPBS medium. The cells were diluted to a solution of 44,000 cells per ml. The cell solution of which density was adjusted was added into the cell assay plate at 90 microliters per well. The well plate was incubated in an incubator with 5% CO2 at 37° C. for 24 hours and then added with test compounds with different concentrations. The cells were incubated with the compounds in the presence of 10% fetal bovine serum for 72 hours. ATP content was assayed using the CellTiter-Glo® Luminescent Cell Viability Assay kit (see instructions of manufacturer) to assess cell growth inhibition. Briefly, 30 μl of CellTiter-Glo® reagent was added to each well, rocked for 10 minutes to induce cell lysis, and […] were detected and recorded with Fluoroskan Ascent FL (Thermo). The maximum signal value was obtained from the cells treated with dimethyl sulfoxide for 72 hours. The minimum signal value was obtained from the separate culture medium (cell number was zero). Inhibition rate %=(maximum signal value−compound signal value)/(maximum signal value−minimum signal value)×100. Data was processed using GraphPad Prism V5.0 (GraphPad Software, San Diego, Calif.) software. IC50 values were calculated by fitting S-shaped dose-response curves.

CDK2 = target: T2, CDK2 (Homo sapiens, UniProt P24941); experiment: CDK2 activity inhibition experiment (Caliper mobility shift assay); assay type: biochemical; details: enzyme activity inhibition; read-out: CDK2 IC50 class
T2 construct: purchased Carna 04-103
Protocol: After being incubated at 28° C. for 60 minutes, 25 μl of stop solution was added to stop the reaction. Conversion rate data was read from Caliper EZ Reader II (Caliper Life Sciences). The conversion rate data was converted into inhibition rate data. […] The curve was plotted with compound concentration and inhibition rate as horizontal and vertical coordinates, and the IC50 was calculated by fitting the curve using XLFit excel add-in version 4.3.1 software. Inhibition rate %=(max-conversion rate)/(max-min)×100.

[3] = tested on: phosphorylation of Rb at Ser780 in MDA-MB-231 breast cancer cells; experiment: Western Blot experiment, Rb phosphorylation; assay type: cell-based; details: MDA-MB-231 cells, 16 hours incubation, FIG. 1
Protocol: MDA-MB-231 cells were grown in monolayer culture. […] The protein concentration was determined by the Branfor method. After being added with a loading buffer (Beyotime, # P0015L), the supernatant was boiled at 100° C. for 8 min, and the protein was separated by 8%-10% SDS-PAGE electrophoresis and then transferred to the PVDF membrane, and the membrane was blocked with 5% skimmed milk powder for 45 min, and then the cells were incubated overnight at 4° C. with primary antibody β-actin (CST, #4970), Rb (D20) Rabbit mAb (CST, #9313), Phospho-Rb(Ser780)(D59B7) Rabbit mAb (CST, #8180), and then the membrane was washed with TBST solution for 3×10 min. The cells were incubated in the dark at room temperature for 2 h with the fluorescent secondary antibody IRDye@680CW Goat (polyclonal) Anti-Rabbit 1gG (H+L), Highly Cross Adsorbed (LI-COR, #926-68071), and then the membrane was washed under the same condition above. Finally, the membrane was detected and imaged on a LI-COR Odyssey Infrared Fluorescence Scanning System, and the results are shown in FIG. 1.
CDK4/6 can make Rb protein lose the arrest on cell cycle by phosphorylating the tumor suppressor protein Rb protein. CDK4/6 inhibitor can prevent the inactivation of tumor suppressor protein Rb and thereby restore the arrest of Rb on cell cycle.

[4] = Pharmacokinetic (PK) experiment in rats; assay type: in vivo; details: male, SD, plasma, po, rat, intragastric 20 mg/kg; for AUC(0-t): 0-24 hour
Protocol: Male SD rats weighing 300-350 g were fasted overnight prior to the experiment. The compounds to be tested were dissolved in 30% sulfobutyl ether-β-cyclodextrin (SBE-β-CD) and the rats were intragastric administration at 20 mg/kg. The blood was taken from the tails of the rats at 15 min, 30 min, and 1, 2, 3, 4, 6, 8 and 24 hours after administration, with about 0.3 ml of blood at each time point, and then the blood was placed in a centrifuge tube containing K2-EDTA, and centrifuged (2,000 g, 10 min, 4° C.) to take the plasma which was then stored in an ultra-low temperature freezer at −80° C. 50 μL, of plasma sample was mixed with 5 μL of internal standard (IS) and extracted with ethyl acetate. The residue was redissolved in acetonitrile after vacuum drying. The sample was filtered and injected into LC-MS/MS for analysis to determine the concentration of the compounds to be tested.
In the table: Tmax refers to the peak time, Cmax refers to the maximum plasma drug concentration, T1/2 is the half-life, AUClast refers to the area under the 0-24 hour time-concentration curve, AUCinf refers to the area under the 0-Inf time-concentration curve.

SW620 = experiment: Tumor cell proliferation inhibition (CellTiter-Glo), SW620; assay type: cell-based; details: Homo sapiens, SW-620; 72 hours, 10% fetal bovine serum; read-out: SW620 IC50 class
Protocol: as §1

[5] = target: T3, CDK6 (GST-CDK6(1-326end)) (Homo sapiens, UniProt Q00534); experiment: CDK6 activity inhibition experiment (Caliper mobility shift assay); assay type: biochemical; details: enzyme activity inhibition; read-out: CDK6 IC50 class
T3 construct: GST-CDK6(1-326end); purchased Carna 04-107
Protocol: The activity of CDK6 protein kinase was measured using Caliper mobility shift assay (see J. Biomol Screen 14:31, 2009). […] 10 μl of the 2.5 times diluted CDK6 enzyme solution (GST-CDK6(1-326end); Carna, Cat. No 04-107) was added and then incubated at room temperature for 10 minutes, then 10 μl of the 2.5 times diluted substrate solution Peptide FAM-P8 (GL Biochem, Cat. No. 112396) was added. After being incubated at 28° C. for 40 minutes, 25 μl of stop solution was added to stop the reaction. Conversion rate data was read from Caliper EZ Reader II (Caliper Life Sciences). The conversion rate data was converted into inhibition rate data. […] Conversion rate data was converted into inhibition rate data according to the method described above. Inhibition rate %=(max−conversion rate)/(max−min)×100.

ZR-75-1 = experiment: Tumor cell proliferation inhibition (CellTiter-Glo), ZR-75-1; assay type: cell-based; details: Homo sapiens, 72 hours, 10% fetal bovine serum, read-out: ZR-75-1 IC50 class
Protocol: as §1

[6] = cited from earlier work
[7] = tested on: MDA-MB-435 breast cancer cells; experiment: Pharmacodynamic experiment, MDA-MB-435 xenograft; assay type: in vivo, mouse
Protocol: MDA-MB-435 breast cancer cells were obtained from Shanghai Cell Bank of Chinese Academy of Sciences. Cryopreserved cells were thawed in a 37° C. water bath and then placed in RPMI 1640 medium supplemented with 10% fetal bovine serum (FBS), 1% insulin (Bioman Biotech, Shanghai) and incubated in 5% CO2 of Tissue Culture Incubator. […] The sign of successful transplantation was the formation of a round bulging lump under the skin. Tumor size can be measured approximately two weeks after implantation. The tumor size was measured by a caliper.

[8] = tested on: locally advanced or metastatic breast cancer, ER+ / HER2−; details: cited from earlier work

T3 sequence (Q00534 whole entry): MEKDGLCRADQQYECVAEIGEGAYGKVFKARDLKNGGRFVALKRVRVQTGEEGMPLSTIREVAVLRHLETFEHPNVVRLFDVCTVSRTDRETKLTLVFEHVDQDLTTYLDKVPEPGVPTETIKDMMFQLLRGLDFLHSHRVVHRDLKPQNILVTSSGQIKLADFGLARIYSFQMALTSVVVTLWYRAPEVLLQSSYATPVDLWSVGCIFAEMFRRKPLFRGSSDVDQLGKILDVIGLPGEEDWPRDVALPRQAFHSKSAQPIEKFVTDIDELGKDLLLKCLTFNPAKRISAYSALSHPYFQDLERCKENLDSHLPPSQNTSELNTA
T3 sequence (P30281 whole entry partner): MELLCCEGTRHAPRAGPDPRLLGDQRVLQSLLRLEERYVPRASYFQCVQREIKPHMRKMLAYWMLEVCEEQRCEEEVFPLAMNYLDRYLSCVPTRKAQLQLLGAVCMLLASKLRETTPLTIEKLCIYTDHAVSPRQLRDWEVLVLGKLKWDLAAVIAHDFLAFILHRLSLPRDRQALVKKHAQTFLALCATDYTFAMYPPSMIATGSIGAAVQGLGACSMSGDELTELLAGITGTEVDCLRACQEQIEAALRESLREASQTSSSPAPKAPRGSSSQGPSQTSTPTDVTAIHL
T1 sequence (P11802 whole entry): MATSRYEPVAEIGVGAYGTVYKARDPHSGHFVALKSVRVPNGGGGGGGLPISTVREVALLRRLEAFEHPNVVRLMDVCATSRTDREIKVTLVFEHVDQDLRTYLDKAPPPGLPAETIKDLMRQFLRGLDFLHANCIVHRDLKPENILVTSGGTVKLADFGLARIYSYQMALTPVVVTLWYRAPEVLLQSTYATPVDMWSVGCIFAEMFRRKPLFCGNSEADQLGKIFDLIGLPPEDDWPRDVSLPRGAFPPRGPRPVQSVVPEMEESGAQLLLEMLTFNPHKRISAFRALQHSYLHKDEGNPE
T1 sequence (P30281 whole entry partner): as the sequence (P30281 whole entry partner) above

SMILES | IC50 ([1]; read-out: IC50 (nM) G1 arrest) [nM] | IC50 ([1]; read-out: IC50 (nM) S decrease) [nM] | IC50 [2] [nM] | IC50 (MDA-MB-231) [nM] | IC50 (CDK2) [nM] | IC50 (SW620) [nM] | IC50 [5] [nM] | IC50 (ZR-75-1) [nM] | further results
CC(=O)c1c(C)c2cnc(Nc3ccc(C4CCN(CCCS(C)(=O)=O)CC4)cn3)nc2n(C2CCCC2)c1=O [Compound 2, 6-acetyl-8-cyclopentyl-5-methyl-2-((5-(1-(3-(methylsulfonyl)propyl)piperidin-4-yl)pyridin-2-yl)amino)pyrido[2,3-d]pyrimidin-7(8H)-one] | 39.8 | 40.9 | < 10 | 100 to 500 | > 500 | 100 to 500 | 10 to 50 | ≤ 100 | phosphorylation of Rb at Ser780 site [3]: effectively reduce; Cmax [4]: 860 ng/mL; Tmax [4]: 2.7 h; half-life [4]: 5 h; AUC(0-t) [4]: 11200 ng·h/mL; AUC(0-inf) [4]: 11700 ng·h/mL
CC(=O)c1c(C)c2cnc(Nc3ccc(C4CCN(CCS(=O)(=O)c5ccc(Cl)cc5)CC4)cn3)nc2n(C2CCCC2)c1=O [Compound 4, 6-acetyl-2-((5-(1-(2-((4-chlorophenyl)sulfonyl)ethyl)piperidin-4-yl)pyridin-2-yl)amino)-8-cyclopentyl-5-methylpyrido[2,3-d]pyrimidin-7(8H)-one] |  |  |  |  |  |  | > 500 |  | 
CC(=O)c1c(C)c2cnc(Nc3ccc(C4CCCN(CCS(C)(=O)=O)C4)cn3)nc2n(C2CCCC2)c1=O (stereo not shown) [Compound 5, 6-acetyl-8-cyclopentyl-5-methyl-2-((5-(1-(2-(methylsulfonyl)ethyl)piperidin-3-yl)pyridin-2-yl)amino)pyrido[2,3-d]pyrimidin-7(8H)-one] |  |  | 10 to 50 | 500 to 1000 | > 500 | 100 to 500 | 10 to 50 | 100 to 500 | 
CC(=O)c1c(C)c2cnc(Nc3ccc(C4CCN(CCS(C)(=O)=O)CC4)cn3)cc2n(C2CCCC2)c1=O [Compound 13, 3-acetyl-1-cyclopentyl-4-methyl-7-((5-(1-(2-(methylsulfonyl)ethyl)piperidin-4-yl)pyridin-2-yl)amino)-1,6-naphthyridin-2(1H)-one] |  |  | < 10 | 500 to 1000 | > 500 | 1000 to 5000 | 10 to 50 | 500 to 1000 | 
CCN1CCN(Cc2ccc(Nc3ncc(F)c(-c4cc(F)c5nc(C)n(C(C)C)c5c4)n3)nc2)CC1 [LY2835219, reference compound] | 35.2 ± 8.9 | 42.9 ± 13.5 |  | 100 to 500 |  | 100 to 500 |  | ≤ 100 | 
N#Cc1ccc(C(c2ccc(C#N)cc2)n2cncn2)cc1 [letrozole] |  |  |  |  |  |  |  |  | progression-free survival (PFS) ([8]; phase II, postmenopausal women, ER+ HER2− breast cancer, p=0.0004): 10.2 months

The next lines start with results.

IC50 ([1]; read-out: IC50 (nM) G1 arrest) [nM] | IC50 ([1]; read-out: IC50 (nM) S decrease) [nM] | IC50 [2] [nM] | IC50 (MDA-MB-231) [nM] | IC50 (CDK2) [nM] | IC50 (SW620) [nM] | IC50 [5] [nM] | IC50 (ZR-75-1) [nM] | SMILES | further results
 |  |  | 1000 to 5000 |  | 500 to 1000 |  | ≤ 100 | CN(C)C(=O)c1cc2cnc(Nc3ccc(N4CCNCC4)cn3)nc2n1C1CCCC1 [LEE011, reference compound] | 
42.4 ± 16.1 | 45.1 ± 10.9 |  | 100 to 500 |  | 100 to 500 |  | 100 to 500 | CC(=O)c1c(C)c2cnc(Nc3ccc(N4CCNCC4)cn3)nc2n(C2CCCC2)c1=O [PD-0332991, Palbociclib, reference compound] | elimination half-life (Average) ([6]; Phase I clinical): 25.9 h; AUC ([6]; Phase I, single oral dose of 25-150 mg): 58 to 641 ng·h/mL; average body weight of the mice ([7]; after 6 days of oral 150 mg/kg once daily): significantly reduced; T/C value ([7]; after 14 days of oral administration, PD-0332991 150 then 100 mg/kg once daily, Compound 1 75 mg/kg twice daily): 41%; T/C value ([7]; day 6 after discontinuation (D20)): 35%; Cmax [4]: 213 ng/mL; Tmax [4]: 1.2 h; half-life [4]: 10 h; AUC(0-t) [4]: 1250 ng·h/mL; AUC(0-inf) [4]: 1400 ng·h/mL; side effects ([8]; clinical, Pfizer Press Release): leukocyte reduction and fatigue
